Measured values: patent US8933224B2, “Triazine derivatives” (Pfizer Inc., priority 2013, dated 2015)

What was measured:
[1] = molecular target: rat PDE10 enzyme (Rattus norvegicus (Rat), UniProt Q9QYJ6); assay: PDE10 scintillation proximity assay (SPA), inhibition of rat PDE10 enzyme activity; type: biochemical; conditions: geometric mean of 2-4 determinations unless otherwise indicated (b: ≧5 determinations; c: single determination)
In short: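 SPA with fixed recombinant PDE10 (Sf21-expressed, Ni-NTA and Mono Q purified) converting ~20% of 20 nM ³H-cAMP in 50 mM TRIS pH 7.5, 1.3 mM MgCl2, 0.01% Brij, across an inhibitor range.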

[2] = molecular target: human recombinant PDE10 enzyme (PDE10A) (Homo sapiens, UniProt Q9Y233); assay: PDE10 scintillation proximity assay (SPA), inhibition of human recombinant PDE10 enzyme activity; type: biochemical; conditions: geometric mean of 2-4 determinations unless otherwise indicated (b: ≧5 determinations; c: single determination)
In short: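 His6-tagged human PDE10A (aa 21–797) was expressed in insect cells and purified by Ni-NTA and size exclusion. The enzyme, at a level converting about 20% of 20 nM ^3H-cAMP, was incubated 30 min at 25°C in 50 mM Tris pH 7.5, 1.3 mM MgCl2, 0.01% Brij with inhibitors. The reaction was stopped with yttrium silicate SPA beads, read by scintillation, and IC50 determined.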

Sequence of rat PDE10 enzyme (Q9QYJ6 24-794): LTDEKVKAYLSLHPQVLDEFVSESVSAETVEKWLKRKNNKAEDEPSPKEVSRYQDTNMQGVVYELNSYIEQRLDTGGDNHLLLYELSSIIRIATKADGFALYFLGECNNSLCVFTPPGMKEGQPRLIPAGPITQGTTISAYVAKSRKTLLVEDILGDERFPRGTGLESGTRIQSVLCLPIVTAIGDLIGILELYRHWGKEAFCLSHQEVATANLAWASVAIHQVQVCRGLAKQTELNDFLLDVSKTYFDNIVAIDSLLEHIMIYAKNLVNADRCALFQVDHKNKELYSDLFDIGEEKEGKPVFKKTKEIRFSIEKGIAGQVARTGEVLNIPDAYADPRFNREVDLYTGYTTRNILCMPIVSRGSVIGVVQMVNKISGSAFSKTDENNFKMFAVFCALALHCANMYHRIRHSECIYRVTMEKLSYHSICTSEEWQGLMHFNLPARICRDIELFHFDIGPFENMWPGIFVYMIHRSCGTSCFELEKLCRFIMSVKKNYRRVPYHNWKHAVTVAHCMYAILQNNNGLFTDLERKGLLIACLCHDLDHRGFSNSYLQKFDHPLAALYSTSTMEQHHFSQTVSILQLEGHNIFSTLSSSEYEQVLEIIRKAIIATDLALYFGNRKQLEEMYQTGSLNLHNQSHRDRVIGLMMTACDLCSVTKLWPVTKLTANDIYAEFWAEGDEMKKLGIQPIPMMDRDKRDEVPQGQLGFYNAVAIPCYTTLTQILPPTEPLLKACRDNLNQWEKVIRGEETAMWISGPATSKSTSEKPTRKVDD

IC50 [1]	IC50 [2]	SMILES
9.7 nM	21.2 nM	Cc1nc(-c2ccccc2F)c2c(N3CCc4ccc(C(F)(F)F)nc4C3)ncnn12 [Example 159, 7-[5-(2-fluorophenyl)-7-methylimidazo[5,1-f][1,2,4]triazin-4-yl]-2-(trifluoromethyl)-5,6,7,8-tetrahydro-1,7-naphthyridine]
0.163 nM	0.468 nM	Cc1nc([C@@H]2CCOC2)c2c(N3CCc4cc(C5CC5)ncc4C3)ncnn12 [Example 161, 6-cyclopropyl-2-{7-methyl-5-[(3S)-tetrahydrofuran-3-yl]imidazo[5,1-f][1,2,4]triazin-4-yl}-1,2,3,4-tetrahydro-2,7-naphthyridine]
2.16 nM	5.21 nM	Cc1nc(-c2ccccc2F)c2c(N3CCc4cc(C5CC5)ncc4C3)ncnn12 [Example 162, 6-cyclopropyl-2-[5-(2-fluorophenyl)-7-methylimidazo[5,1-f][1,2,4]triazin-4-yl]-1,2,3,4-tetrahydro-2,7-naphthyridine]
0.766 nM	1.02 nM	CCn1ncc2c1CN(c1ncnn3c(C)nc([C@@H]4CCOC4)c13)CC2 [Example 165, 4-(1-ethyl-1,4,5,7-tetrahydro-6H-pyrazolo[3,4-c]pyridin-6-yl)-7-methyl-5-[(3S)-tetrahydrofuran-3-yl]imidazo[5,1-f][1,2,4]triazine]
0.435 nM	0.801 nM	CCn1ncc2c1CN(c1ncnn3c(C)nc(-c4ccccc4F)c13)CC2 [Example 166, 4-(1-ethyl-1,4,5,7-tetrahydro-6H-pyrazolo[3,4-c]pyridin-6-yl)-5-(2-fluorophenyl)-7-methylimidazo[5,1-f][1,2,4]triazine]
4.47 nM	4.11 nM	Cc1nc([C@@H]2CCOC2)c2c(N3Cc4c(cnn4C)C(C)C3)ncnn12 (stereo partly drawn) [Example 167, 4-(1,4-dimethyl-1,4,5,7-tetrahydro-6H-pyrazolo[3,4-c]pyridin-6-yl)-7-methyl-5-[(3S)-tetrahydrofuran-3-yl]imidazo[5,1-f][1,2,4]triazine]
6.1 nM	3.96 nM	Cc1nc(-c2ccccc2F)c2c(N3Cc4c(cnn4C)C(C)C3)ncnn12 (centres unmarked) [Example 168]
0.367 nM	0.755 nM	Cc1nc([C@@H]2CCOC2)c2c(N3CCc4cnn(CC(C)C)c4C3)ncnn12 [Example 169, 7-methyl-4-[1-(2-methylpropyl)-1,4,5,7-tetrahydro-6H-pyrazolo[3,4-c]pyridin-6-yl]-5-[(3S)-tetrahydrofuran-3-yl]imidazo[5,1-f][1,2,4]triazine]
1.94 nM	2.55 nM	Cc1nc([C@@H]2CCOC2)c2c(N3CCc4cnn(CC(F)(F)F)c4C3)ncnn12 [Example 170, 7-methyl-5-[(3S)-tetrahydrofuran-3-yl]-4-[1-(2,2,2-trifluoroethyl)-1,4,5,7-tetrahydro-6H-pyrazolo[3,4-c]pyridin-6-yl]imidazo[5,1-f][1,2,4]triazine]
0.359 nM	0.345 nM	Cc1nc([C@@H]2CCOC2)c2c(N3CCc4cnn(CC5CCC5)c4C3)ncnn12 [Example 174, 4-[1-(cyclobutylmethyl)-1,4,5,7-tetrahydro-6H-pyrazolo[3,4-c]pyridin-6-yl]-7-methyl-5-[(3S)-tetrahydrofuran-3-yl]imidazo[5,1-f][1,2,4]triazine]
0.878 nM	1.94 nM	Cc1nc(-c2ccccc2F)c2c(N3CCc4cnn(CC5CCC5)c4C3)ncnn12 [Example 175, 4-[1-(cyclobutylmethyl)-1,4,5,7-tetrahydro-6H-pyrazolo[3,4-c]pyridin-6-yl]-5-(2-fluorophenyl)-7-methylimidazo[5,1-f][1,2,4]triazine]

SMILES	IC50 [1]	IC50 [2]
Cc1cc2c(cn1)CN(c1ncnn3c(C)nc([C@@H]4CCOC4)c13)CC2 [Example 163, 6-methyl-2-{7-methyl-5-[(3S)-tetrahydrofuran-3-yl]imidazo[5,1-f][1,2,4]triazin-4-yl}-1,2,3,4-tetrahydro-2,7-naphthyridine]	1.19 nM	1.78 nM
Cc1cc2c(cn1)CN(c1ncnn3c(C)nc(-c4ccccc4F)c13)CC2 [Example 164, 2-[5-(2-fluorophenyl)-7-methylimidazo[5,1-f][1,2,4]triazin-4-yl]-6-methyl-1,2,3,4-tetrahydro-2,7-naphthyridine]	3.32 nM	5.92 nM
